According to patent US20110135774A1, “Process for Preparing a Plant Extract of Passiflora Alata and Use of Said Extract in Cosmetic and Pharmaceutical Compositions” (priority 2007, published 2011):

Legend:
Type in all cases: cell-based
Settings in all cases: Fibroblast
IL-6 secretion [1] = test: Inhibition of IL-6 secretion in human dermal fibroblasts stimulated with LPS or UVB (Example 7.2)
Description: (§1) Dermis-derived human fibroblasts were incubated with lipopolysaccharide (LPS) or UV to induce the secretion of pro-inflammatory markers IL-6 and IL-8. The anti-inflammatory potential of the sample was identified by the reduction in the secretion of the pro-inflammatory markers. Material used: Dermis-derived human fibroblasts, kept in culture until the tenth passage at most. Sterile-culture plates with 96 wells, non-sterile plates with 96 wells, conical tubes of 15 ml and 50 ml, radiation chamber with UVB lamp. 96-well plates were prepared with 2×10^4 cells/well in 100 μl μl of DMEM containing 10% SFB. The cells were incubated overnight in a CO2 oven. The culture medium was discarded and the wells were washed with 200 μl PBS. 100 μl of DMEM containing 1% SFB and the suitable stimuli were added. Incubation was carried out in a CO2 oven overnight. […] 100 μl of PBS and the suitable stimuli were added. […] After stimulation, supernatants were collected, stored at −20° C. and assessed by ELISA (described below). In order to keep cell viability after stimulation, the cells were incubated with a Neutral Red solution for 3 hours and, after washing with 200 μl of PBS, 200 μl of development solution were added, and the reading was performed at 540 nm. […] The quantification of pro-inflammatory markers was determined from the comparisons with the standard curves specifically constructed for IL-6 or IL-8. […]

IL-6 secretion [2] = test: Inhibition of IL-6 secretion in human dermal fibroblasts (Example 7.1)
Description: (§2) The objective of this test was to assess the anti-inflammatory potential of in vitro extracts, using human dermal fibroblast cultures. The statistical significance (p<0.05) of the data was verified by the analysis of variance (One-Way ANOVA) followed by a Tukey multiple comparison using the SYSTAT 10 software.
(§3) Human fibroblasts derived from the dermis were incubated with lipopolysaccharide (LPS) of Escherichia coli to induce the secretion of pro-inflammatory citokines IL-6 and IL-8 (Interleukin 6 and 8). The anti-inflammatory potential of the sample was identified by the reduction in the secretion of the pro-inflammatory markers. • Material used: Dermis-derived human fibroblasts, kept in culture until the tenth passage at most. […]
(§4) After stimulation, supernatants were collected, stored at −20° C. and analysed by ELISA (described below). In order to keep cell viability after stimulation, the cells were incubated with a Neutral Red solution for 3 hours and after washing with 200 μl of PBS, 200 μl of development solution were added, and the reading was performed at 540 nm. […]
(§5) For the ELISA test, 96-well plates were used. The quantification of pro-inflammatory markers was determined from the comparisons with the standard curves specifically constructed for IL-6 or IL-8. […]

IL-8 secretion [3] = test: Inhibition of IL-8 secretion in human dermal fibroblasts (Example 7.1)
Description: as §2, §3, §4, §5

IL-8 secretion [4] = test: Inhibition of IL-8 secretion in human dermal fibroblasts stimulated with LPS or UVB (Example 7.2)
Description: as §1

[5] = LPS 10 ng/ml + 5 uM, reference LPS
[6] = 5 uM + LPS 10 ng/ml, reference LPS
[7] = 5 uM, no LPS, reference Control
[8] = light or radiation study, UVB 0.23 J/cm2 + 5 uM, reference UVB

Row | SMILES | inhibition at 5 µM (IL-6 secretion [1]; [5]) | inhibition at 5 µM (IL-6 secretion [2]; [6]) | inhibition at 5 µM (IL-6 secretion [2]; [7]) | inhibition at 5 µM (IL-8 secretion [3]; [6]) | inhibition at 5 µM (IL-8 secretion [3]; [7]) | inhibition at 5 µM (IL-8 secretion [4]; [5]) | inhibition at 5 µM (IL-6 secretion [1]; [8]) | inhibition at 5 µM (IL-8 secretion [4]; [8])
1 | C[C@@H]1C[C@H]2[C@@H]3CCC4=CC(=O)C=C[C@]4(C)[C@@]3(F)[C@@H](O)C[C@]2(C)[C@@]1(O)C(=O)CO [Dexamethasone] | 94% | 96% | 71% | 53% | 68% | 82% |  | 
2 | C[C@]12CCC(=O)C=C1CC[C@@H]1[C@@H]2[C@@H](O)C[C@@]2(C)[C@H]1CC[C@]2(O)C(=O)CO [Hydrocortisone] |  |  |  |  |  |  | 71% | 79%
